Key:
[1] = target: F-ATP synthase (subunit c) (Mycobacterium tuberculosis, UniProt A1KI93); type: biochemical
[2] = target: F-ATP synthase (subunit ε) (Mycobacterium tuberculosis, UniProt A1KI99); type: biochemical
[3] = target: T1, F-ATP synthase (subunit ε) (Mycolicibacterium smegmatis, UniProt A0R1Z9); test: NADH-driven ATP synthesis of inverted membrane vesicles; type: biochemical
T1 construct: gene atpC

[4] = target: T2, Mtε (F-ATP synthase subunit ε) (Mycobacterium tuberculosis, UniProt P9WPV1); type: binding
T2 construct: gene atpC; recombinant Mtε, 121 residues (N-terminal domain M1-E87, C-terminal domain I90-D121), 15N-labeled
T2 sequence (P9WPV1 whole entry, the tested form may be a part): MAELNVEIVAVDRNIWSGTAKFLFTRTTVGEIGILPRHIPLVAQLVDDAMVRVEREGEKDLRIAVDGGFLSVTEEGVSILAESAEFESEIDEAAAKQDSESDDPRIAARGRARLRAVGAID

F-ATP synthase (subunit ε) (Mycobacterium tuberculosis, UniProt A1KI99), sequence (A1KI99 whole entry): as the sequence (P9WPV1 whole entry, the tested form may be a part) above
F-ATP synthase (subunit ε) (Mycobacterium tuberculosis, UniProt A1KI99), sequence (A1KI96 whole entry partner): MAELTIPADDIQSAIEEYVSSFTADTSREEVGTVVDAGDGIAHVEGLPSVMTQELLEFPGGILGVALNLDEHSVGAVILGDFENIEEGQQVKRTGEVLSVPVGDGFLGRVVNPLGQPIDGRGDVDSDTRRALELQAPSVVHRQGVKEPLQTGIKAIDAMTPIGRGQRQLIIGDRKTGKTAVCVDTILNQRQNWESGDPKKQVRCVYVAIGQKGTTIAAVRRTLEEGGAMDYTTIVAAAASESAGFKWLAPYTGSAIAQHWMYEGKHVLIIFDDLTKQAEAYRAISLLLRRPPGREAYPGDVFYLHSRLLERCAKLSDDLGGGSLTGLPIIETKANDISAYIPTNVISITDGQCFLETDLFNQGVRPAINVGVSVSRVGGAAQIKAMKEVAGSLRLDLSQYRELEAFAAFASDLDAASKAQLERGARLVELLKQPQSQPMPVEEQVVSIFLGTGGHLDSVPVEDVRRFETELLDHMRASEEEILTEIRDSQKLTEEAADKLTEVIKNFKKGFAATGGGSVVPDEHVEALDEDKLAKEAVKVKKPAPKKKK
F-ATP synthase (subunit ε) (Mycobacterium tuberculosis, UniProt A1KI99), sequence (A1KI98 whole entry partner): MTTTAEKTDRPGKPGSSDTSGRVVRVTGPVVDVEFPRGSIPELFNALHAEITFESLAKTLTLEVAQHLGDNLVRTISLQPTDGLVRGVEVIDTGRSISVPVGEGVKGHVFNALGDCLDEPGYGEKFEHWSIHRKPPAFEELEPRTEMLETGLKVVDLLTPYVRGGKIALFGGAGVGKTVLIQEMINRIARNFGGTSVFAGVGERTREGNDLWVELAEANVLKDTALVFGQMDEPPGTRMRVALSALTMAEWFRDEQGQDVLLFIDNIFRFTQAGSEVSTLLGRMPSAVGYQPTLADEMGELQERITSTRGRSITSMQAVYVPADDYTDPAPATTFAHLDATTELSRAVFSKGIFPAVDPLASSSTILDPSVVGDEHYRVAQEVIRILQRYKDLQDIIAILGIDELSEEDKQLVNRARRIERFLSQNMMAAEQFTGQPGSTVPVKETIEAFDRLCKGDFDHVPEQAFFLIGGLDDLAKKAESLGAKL
F-ATP synthase (subunit ε) (Mycobacterium tuberculosis, UniProt A1KI99), sequence (A1KI97 whole entry partner): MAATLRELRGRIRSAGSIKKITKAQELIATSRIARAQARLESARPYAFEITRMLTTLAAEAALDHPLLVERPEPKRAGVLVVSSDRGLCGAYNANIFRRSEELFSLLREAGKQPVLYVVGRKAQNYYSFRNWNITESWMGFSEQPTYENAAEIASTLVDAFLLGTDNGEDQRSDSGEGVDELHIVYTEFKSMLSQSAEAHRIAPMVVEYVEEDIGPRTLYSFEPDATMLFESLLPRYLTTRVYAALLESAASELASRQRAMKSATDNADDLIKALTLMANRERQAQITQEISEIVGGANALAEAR
F-ATP synthase (subunit ε) (Mycobacterium tuberculosis, UniProt A1KI99), sequence (A1KI93 whole entry partner): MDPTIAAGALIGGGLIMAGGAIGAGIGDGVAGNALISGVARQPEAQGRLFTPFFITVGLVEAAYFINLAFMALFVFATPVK
F-ATP synthase (subunit c), sequence (A1KI93 whole entry): as the sequence (A1KI93 whole entry partner) above
F-ATP synthase (subunit c), sequence (A1KI99 whole entry partner): as the sequence (P9WPV1 whole entry, the tested form may be a part) above
F-ATP synthase (subunit c), sequence (A1KI96 whole entry partner): as the sequence (A1KI96 whole entry partner) above
F-ATP synthase (subunit c), sequence (A1KI98 whole entry partner): as the sequence (A1KI98 whole entry partner) above

Row | Structure (SMILES) | IC50 [1] | IC50 [2] | IC50 [3] | 1H-15N HSQC NMR titration, Mtε:EGCG 1:2 [4]
1 | COc1nc2ccc(Br)cc2cc1[C@@H](c1ccccc1)[C@@](O)(CCN(C)C)c1cccc2ccccc12 [bedaquiline] | 7.05 ± 1.32 nM |  |  | 
2 | O=C(O[C@@H]1Cc2c(O)cc(O)cc2O[C@@H]1c1cc(O)c(O)c(O)c1)c1cc(O)c(O)c(O)c1 [epigallocatechin gallate] |  | 2200 ± 300 nM | 155.6 ± 1.2 nM | gradual line broadening with increasing molar ratios were observed, which demonstrate binding of EGCG with Mtε

Source: publication PMC6856130, “Disrupting coupling within mycobacterial F-ATP synthases subunit ε causes dysregulated energy production and cell wall biosynthesis” (Scientific Reports, 2019)
